Test system: 855422-203-R-J1-PDC spheroids with HUVEC/MSC, viability
Experiment: Anticancer human tumor 855422-203-R-J1-PDC patient-derived bladder carcinoma cell line growth inhibition [PI3K]
Details: for viability, T/C: stronger effect = lower value
In short: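 Targeted small molecules plus PI3K inhibitors, half-log dose series from Cmax (default top 10 microM), were applied to heterotypic spheroids of cancer cells with HUVEC and MSCs. Viability indicated growth inhibition.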

[1] = curve of first compound, second compound 0.0316 µM
[2] = curve of first compound, second compound 0.1 µM
[3] = curve of first compound, second compound 0.316 µM
[4] = curve of first compound, second compound 1 µM
[5] = curve of first compound, second compound 3.16 µM
[6] = curve of first compound, second compound 10 µM
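Note: agents incubated with spheroids for one week before read-out.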
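Throughout, for viability, T/C: 100% = DMSO vehicle-treated control wells.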

C=CC(=O)N1CCN(c2nc(=O)n(-c3c(C)ccnc3C(C)C)c3nc(-c4c(O)cccc4F)c(F)cc23)C(C)C1 (stereo unspecified) + Cc1nc(NC(=O)N2CCCC2C(N)=O)sc1-c1ccnc(C(C)(C)C(F)(F)F)c1
IC50 [1]: > 10 µM | IC50 [2]: > 10 µM | IC50 [3]: > 10 µM | IC50 [4]: > 10 µM | IC50 [5]: < 0.0316 µM | IC50 [6]: < 0.0316 µM | viability, T/C (second compound 0.0316 µM, first compound 0.0316 µM): 111% | viability, T/C (second compound 0.0316 µM, first compound 0.1 µM): 87.8% | viability, T/C (second compound 0.0316 µM, first compound 0.316 µM): 119% | viability, T/C (second compound 0.0316 µM, first compound 1 µM): 104% | viability, T/C (second compound 0.0316 µM, first compound 3.16 µM): 109% | viability, T/C (second compound 0.0316 µM, first compound 10 µM): 128% | viability, T/C (second compound 0.1 µM, first compound 0.0316 µM): 108% | viability, T/C (second compound 0.1 µM, first compound 0.1 µM): 86.8% | viability, T/C (second compound 0.1 µM, first compound 0.316 µM): 106% | viability, T/C (second compound 0.1 µM, first compound 1 µM): 103% | viability, T/C (second compound 0.1 µM, first compound 3.16 µM): 117% | viability, T/C (second compound 0.1 µM, first compound 10 µM): 114% | viability, T/C (second compound 0.316 µM, first compound 0.0316 µM): 94.7% | viability, T/C (second compound 0.316 µM, first compound 0.1 µM): 87.3% | viability, T/C (second compound 0.316 µM, first compound 0.316 µM): 104% | viability, T/C (second compound 0.316 µM, first compound 1 µM): 99.5% | viability, T/C (second compound 0.316 µM, first compound 3.16 µM): 117% | viability, T/C (second compound 0.316 µM, first compound 10 µM): 109% | viability, T/C (second compound 1 µM, first compound 0.0316 µM): 75.9% | viability, T/C (second compound 1 µM, first compound 0.1 µM): 76.1% | viability, T/C (second compound 1 µM, first compound 0.316 µM): 82.6% | viability, T/C (second compound 1 µM, first compound 1 µM): 92.5% | viability, T/C (second compound 1 µM, first compound 3.16 µM): 101% | viability, T/C (second compound 1 µM, first compound 10 µM): 97.4% | viability, T/C (second compound 3.16 µM, first compound 0.0316 µM): 50.6% | viability, T/C (second compound 3.16 µM, first compound 0.1 µM): 50.9% | viability, T/C (second compound 3.16 µM, first compound 0.316 µM): 58.5% | viability, T/C (second compound 3.16 µM, first compound 1 µM): 64% | viability, T/C (second compound 3.16 µM, first compound 3.16 µM): 80.4% | viability, T/C (second compound 3.16 µM, first compound 10 µM): 67.9% | viability, T/C (second compound 10 µM, first compound 0.0316 µM): 26.9% | viability, T/C (second compound 10 µM, first compound 0.1 µM): 27.1% | viability, T/C (second compound 10 µM, first compound 0.316 µM): 31.5% | viability, T/C (second compound 10 µM, first compound 1 µM): 37.2% | viability, T/C (second compound 10 µM, first compound 3.16 µM): 41.2% | viability, T/C (second compound 10 µM, first compound 10 µM): 34.2%

CC1(C)CCC(Nc2ncc(C(F)(F)F)c(-c3c[nH]c4c(P(C)(C)=O)c(C#N)ccc34)n2)CN1 (stereo unspecified)
viability, T/C (compound 0.0316 µM): 29.6% [middle of 4 runs] | viability, T/C (compound 0.1 µM): 25% [middle of 4 runs] | viability, T/C (compound 0.316 µM): 27.7% [middle of 4 runs] | viability, T/C (compound 1 µM): 30.7% [middle of 4 runs] | viability, T/C (compound 3.16 µM): 28.9% [middle of 4 runs] | viability, T/C (compound 10 µM): 5.48% [middle of 4 runs] | IC50 (curve of compound): < 0.0316 µM

Cn1cnc2c(F)c(Nc3ccc(Br)cc3Cl)c(C(=O)NOCCO)cc21 + Cc1nc(NC(=O)N2CCCC2C(N)=O)sc1-c1ccnc(C(C)(C)C(F)(F)F)c1
IC50 [1]: 2.25 µM | IC50 [2]: 2.58 µM | IC50 [3]: 1.35 µM | IC50 [4]: 0.111 µM | IC50 [5]: < 0.00949 µM | IC50 [6]: < 0.00949 µM | viability, T/C (second compound 0.0316 µM, first compound 0.00949 µM): 94% | viability, T/C (second compound 0.0316 µM, first compound 0.03 µM): 79.5% | viability, T/C (second compound 0.0316 µM, first compound 0.0949 µM): 116% | viability, T/C (second compound 0.0316 µM, first compound 0.3 µM): 90.4% | viability, T/C (second compound 0.0316 µM, first compound 0.949 µM): 82.1% | viability, T/C (second compound 0.0316 µM, first compound 3 µM): 39.2% | viability, T/C (second compound 0.1 µM, first compound 0.00949 µM): 96.6% | viability, T/C (second compound 0.1 µM, first compound 0.03 µM): 92.9% | viability, T/C (second compound 0.1 µM, first compound 0.0949 µM): 89.8% | viability, T/C (second compound 0.1 µM, first compound 0.3 µM): 82.1% | viability, T/C (second compound 0.1 µM, first compound 0.949 µM): 79.4% | viability, T/C (second compound 0.1 µM, first compound 3 µM): 45.1% | viability, T/C (second compound 0.316 µM, first compound 0.00949 µM): 85.9% | viability, T/C (second compound 0.316 µM, first compound 0.03 µM): 78% | viability, T/C (second compound 0.316 µM, first compound 0.0949 µM): 89.9% | viability, T/C (second compound 0.316 µM, first compound 0.3 µM): 75.7% | viability, T/C (second compound 0.316 µM, first compound 0.949 µM): 61.6% | viability, T/C (second compound 0.316 µM, first compound 3 µM): 25% | viability, T/C (second compound 1 µM, first compound 0.00949 µM): 53.1% | viability, T/C (second compound 1 µM, first compound 0.03 µM): 59.4% | viability, T/C (second compound 1 µM, first compound 0.0949 µM): 45.1% | viability, T/C (second compound 1 µM, first compound 0.3 µM): 44.3% | viability, T/C (second compound 1 µM, first compound 0.949 µM): 36.2% | viability, T/C (second compound 1 µM, first compound 3 µM): 10.2% | viability, T/C (second compound 3.16 µM, first compound 0.00949 µM): 33.7% | viability, T/C (second compound 3.16 µM, first compound 0.03 µM): 32.9% | viability, T/C (second compound 3.16 µM, first compound 0.0949 µM): 21.7% | viability, T/C (second compound 3.16 µM, first compound 0.3 µM): 21.2% | viability, T/C (second compound 3.16 µM, first compound 0.949 µM): 16% | viability, T/C (second compound 3.16 µM, first compound 3 µM): 6% | viability, T/C (second compound 10 µM, first compound 0.00949 µM): 22.9% | viability, T/C (second compound 10 µM, first compound 0.03 µM): 11.8% | viability, T/C (second compound 10 µM, first compound 0.0949 µM): 12.7% | viability, T/C (second compound 10 µM, first compound 0.3 µM): 8.91% | viability, T/C (second compound 10 µM, first compound 0.949 µM): 5.5% | viability, T/C (second compound 10 µM, first compound 3 µM): 1.88%

Source: PubChem BioAssay AID1963967 (Molecular Pharmacology Branch, DTP, NCI, 2024)
